In paper PMC5572576 (The Lancet. Oncology, 2017):
Values joined by “and” are separate entries in the source; they are usually repeats but may differ in a detail not shown here. Equal entries are not always repeated.

What was measured:
c-Kit = conditions: cell-based assays; cited from earlier work
[1] = Plasma pharmacokinetics after oral once-daily dosing; type: in vivo, human; conditions: oral daily dosing 20–450 mg
[2] = biological target: leukocyte receptor tyrosine kinase (LTK); conditions: panel of 78 kinases; cited from earlier work
[3] = biological target: anaplastic lymphoma kinase (ALK); conditions: panel of 78 kinases; cited from earlier work
AXL = conditions: panel of 78 kinases; cited from earlier work
FLT3 = conditions: cell-based assays; cited from earlier work
patients with R/R AML = assay: Phase 1/2 study, antileukemic response; type: in vivo, human; conditions: for Median overall survival / Median response duration: (95% CI)
[4] = FLT3mut+ receiving ≥80mg/d (n=169)

For `CCc1nc(C(N)=O)c(Nc2ccc(N3CCC(N4CCN(C)CC4)CC3)c(OC)c2)nc1NC1CCOCC1` [gilteritinib], the IC50 (c-Kit) is given as 102 nM, the “Steady state plasma levels reached” value [1] is given as 15 treatment Day and the kinase inhibition [2] is given as “strong inhibitor”. The kinase inhibition [3] was “strong inhibitor”, the kinase inhibition (AXL) was “strong inhibitor” and the IC50 (FLT3) was […]. The CRc (patients with R/R AML; FAS (n=249)) was 75 (30% [25, 36]) n (% [95% CI]), the ORR (patients with R/R AML; FAS (n=249)) was 100 (40% [34, 47]) n (% [95% CI]) and the Median overall survival (patients with R/R AML; FAS (n=249)) was 25 (20, 30) weeks. For the same molecule, the Median response duration (patients with R/R AML; FAS (n=249)) was […], the CRc (patients with R/R AML; FLT3WT (n=58)) was 5 (9% [3, 19]) n (% [95% CI]) and the Median overall survival (patients with R/R AML; FLT3WT (n=58)) was 17 (11, 21) weeks. The Median response duration (patients with R/R AML; FLT3WT (n=58)) was […], the CR (patients with R/R AML; FLT3mut+ all patients (n=191)) was 18 (9% [6, 15]) n (% [95% CI]) and the CRc (patients with R/R AML; FLT3mut+ all patients (n=191)) was 70 (37% [30, 44]) n (% [95% CI]). For the same molecule, the CRi (patients with R/R AML; FLT3mut+ all patients (n=191)) was 42 (22% [16, 29]) n (% [95% CI]), the CRp (patients with R/R AML; FLT3mut+ all patients (n=191)) was 10 (5% [3, 9]) n (% [95% CI]) and the ORR (patients with R/R AML; FLT3mut+ all patients (n=191)) was 93 (49% [41, 56]) n (% [95% CI]). For the same molecule, the PR (patients with R/R AML; FLT3mut+ all patients (n=191)) was 23 (12% [8, 18]) n (% [95% CI]), the Median overall survival (patients with R/R AML; FLT3mut+ all patients (n=191)) was 30 (23, 33) weeks and the Median response duration (patients with R/R AML; FLT3mut+ all patients (n=191)) was […]. For the same molecule, the Transplant rate (patients with R/R AML; FLT3mut+ receiving ≥80 mg/d) was 19%, the CR (patients with R/R AML; [4]) was 18 (11% [6, 16]) n (% [95% CI]) and the CRi (patients with R/R AML; [4]) was 41 (24% [18, 31]) n (% [95% CI]). For the same molecule, the CRp (patients with R/R AML; [4]) was 10 (6% [3, 11]) n (% [95% CI]), the ORR (patients with R/R AML; [4]) was 88 (52% [44, 60]) n (% [95% CI]) and the PR (patients with R/R AML; [4]) was 19 (11% [7, 17]) n (% [95% CI]). The Median overall survival (patients with R/R AML; [4]) was 31 weeks and 31 (24, 59) weeks, the Median response duration (patients with R/R AML; [4]) was […] and the “Median OS” value (patients with R/R AML; FLT3mut+ responders who underwent HSCT (n=32)) was 47 weeks. It also gave a Transplant rate (patients with R/R AML; FLT3mut+ who achieved PR or better) of 34%, a Transplant rate (patients with R/R AML; FLT3mut+ with CRc and no prior transplant (n=47)) of 47% and a Transplant rate (patients with R/R AML; entire FLT3mut+ population) of 19%.
